Data taken from ChEMBL document CHEMBL1201862, “PubChem BioAssay data set” (2004).
Each block holds one compound with its values, some of them ahead of it. The source made the active and inactive calls.

Key:
[1] = inhibitors of Vif binding to APOBEC3G peptide, primary screen, biochemical, TR-FRET, GST-Vif 1-94, biotin-A3G peptide, dose response retest (AID 1117319); format: functional;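 further: TR-FRET signal of purified GST-Vif binding a biotinylated A3G peptide; inhibitors lower the FRET signal by blocking Vif and A3G binding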
Bcl-2-like protein 10 = target: T1, Bcl-2-like protein 10 (Homo sapiens, UniProt Q9HD36); assay: displacers of TR3 peptide from Bcl-B, primary screen, selectivity assay for Bfl-1 inhibitor project, biochemical, fluorescence polarization, FITC-TR3 peptide (AID 748);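 further: fluorescence polarization from a fluorescein-labelled TR3 peptide binding purified Bcl-B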
T1 sequence (Q9HD36 whole entry): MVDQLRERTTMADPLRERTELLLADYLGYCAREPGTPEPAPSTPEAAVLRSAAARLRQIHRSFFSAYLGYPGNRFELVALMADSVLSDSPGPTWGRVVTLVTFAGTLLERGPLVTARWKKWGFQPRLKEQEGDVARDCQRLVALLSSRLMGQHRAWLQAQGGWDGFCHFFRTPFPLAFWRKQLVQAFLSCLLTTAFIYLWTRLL

Estrogen receptor beta [2] = target: T2, Estrogen receptor beta (Homo sapiens, UniProt Q92731); assay: ERβ–SRC-3 coactivator interaction inhibitors, confirmation, orthogonal assay, biochemical, ELISA, streptavidin-HRP readout (AID 1060)
Estrogen receptor beta [3] = target: T2, Estrogen receptor beta
Cytochrome P450 2C19 = Cytochrome P450 2C19 (Homo sapiens, UniProt P33261); assay: qHTS Assay for Inhibitors and Substrates of Cytochrome P450 2C19. [Related pubchem assays: 410 ]; format: ADME; settings: read-out: Potency
[4] = target: Peroxisome proliferator-activated receptor gamma/Nuclear receptor coactivator 3 (Homo sapiens, UniProt P37231); format: functional;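 further: agonist potency for raising coactivator recruitment to the receptor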
[5] = target: Peroxisome proliferator-activated receptor gamma/Nuclear receptor coactivator 1 (Homo sapiens, UniProt P37231); format: functional;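 further: agonist potency as compounds enhance coactivator SRC-1 recruitment to PPARgamma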
[6] = target: Peroxisome proliferator-activated receptor gamma/Nuclear receptor coactivator 2 (Homo sapiens, UniProt P37231); format: functional;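 further: agonist potency for raising coactivator recruitment to the receptor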
Estrogen receptor = target: T3, Estrogen receptor (Homo sapiens, UniProt P03372);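 further: potency for inhibiting coactivator peptide recruitment to the receptor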
T3 sequence (P03372 whole entry): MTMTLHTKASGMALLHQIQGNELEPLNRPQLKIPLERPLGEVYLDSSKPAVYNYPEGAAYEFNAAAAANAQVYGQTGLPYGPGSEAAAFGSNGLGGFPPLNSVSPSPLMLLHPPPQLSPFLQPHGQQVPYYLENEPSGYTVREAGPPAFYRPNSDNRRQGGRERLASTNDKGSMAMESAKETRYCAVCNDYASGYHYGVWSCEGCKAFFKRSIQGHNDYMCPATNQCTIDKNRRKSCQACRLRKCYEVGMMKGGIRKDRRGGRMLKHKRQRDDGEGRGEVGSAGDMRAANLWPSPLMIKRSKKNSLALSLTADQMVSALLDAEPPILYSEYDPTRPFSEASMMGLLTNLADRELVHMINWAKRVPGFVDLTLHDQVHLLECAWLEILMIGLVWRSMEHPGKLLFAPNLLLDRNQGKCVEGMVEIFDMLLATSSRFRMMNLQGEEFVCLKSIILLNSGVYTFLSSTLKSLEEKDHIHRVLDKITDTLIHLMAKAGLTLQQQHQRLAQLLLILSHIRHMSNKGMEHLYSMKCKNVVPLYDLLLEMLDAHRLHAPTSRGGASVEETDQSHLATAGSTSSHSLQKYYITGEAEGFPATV

[7] = Dose-response inhibition of insulin secretion in a rat insulinoma line at 5 mM glucose (AID 1117331); format: functional, cell-based; settings: INS-1E
[8] = inhibitors of PGC1a acetylation in cells, dose response, cell-based, cherry-picked samples (AID 720514); format: functional;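 further: potency may reflect raised or lowered acetylation signal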
[9] = non-specific cell cytotoxicity, dose response, cytotoxicity control for PAX8 inhibitor project, plate reader, dry powder samples (AID 743021); format: functional, cell-based
Paired box protein Pax-8 = Paired box protein Pax-8 (Homo sapiens, UniProt Q06710); assay: inhibitors of PAX8-driven TPO luciferase reporter, dose response, RMG-I cells, cherry-pick (AID 687027); format: functional, cell-based;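 further: luciferase reporter driven by Pax8 target thyroperoxidase promoter measured by SteadyGlo luminescence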
[10] = P. falciparum Dd2 growth inhibitors, dose response, SYBR Green, dry powder samples, set 9 (AID 1159568); format: functional, cell-based
[11] = P. falciparum Dd2 growth inhibitors, dose response, SYBR Green, cherry-picked samples (AID 1159567); format: functional, cell-based
[12] = NIH:OVCAR-3 ovarian cancer cell cytotoxicity, dose response, PAX8 inhibitor project, plate reader, dry powder samples (AID 743044); format: functional, cell-based
[13] = cytotoxicity in OVCAR8 ovarian cancer cells, dose response, PAX8 project, cell-based, plate reader, dry powder samples (AID 743197); format: functional; settings: OVCAR-8
[14] = HepG2 cell cytotoxicity, dose response, cytotoxicity control, plate reader, cherry-pick, antagonist series (AID 743416); format: functional, cell-based
[15] = MC4R antagonists, dose response, counter-screen for LGR2 antagonist project, cell-based, plate reader, cherry pick (AID 743444); format: functional;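 further: transfected HEK 293 cells stimulated with alpha-MSH peptide; potency of inhibitors of the alpha-MSH evoked signal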
[16] = A549 cell cytotoxicity, dose response, cytotoxicity control, plate reader, cherry-pick, antagonist series (AID 743412); format: functional, cell-based
[17] = T. cruzi growth inhibition in host cells, dose response, cell-based, plate reader, dry powder, set 2 (AID 652275); format: functional
[18] = P. falciparum 3D7-ScDHODH growth inhibitors, dose response, SYBR Green, dry powder samples (AID 1159570); format: functional, cell-based;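 further: parasite growth measured after 72 hours of compound exposure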
[19] = HepG2 cell cytotoxicity, dose response, cytotoxicity control, plate reader, dry powder samples (AID 1159569); format: functional, cell-based;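 further: inhibitor potency with signal falling toward the positive control level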
[20] = P. falciparum Dd2 growth inhibitors, dose response, SYBR Green, dry powder samples (AID 1159566); format: functional, cell-based;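 further: potency for growth inhibition with lower SYBR green DNA signal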
[21] = P. falciparum ATP4 D1247Y mutant growth inhibitors, dose response, NITD609-resistant line, SYBR Green, dry powder (AID 1159571); format: functional, cell-based;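 further: parasites synchronized at ring stage by sorbitol before testing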
[22] = target: T4, Methionyl-tRNA synthetase, putative (Trypanosoma brucei brucei, UniProt Q38C91); format: functional, Trypanosoma brucei brucei strain 927/4 GUTat10.1
T4 sequence (Q38C91 whole entry): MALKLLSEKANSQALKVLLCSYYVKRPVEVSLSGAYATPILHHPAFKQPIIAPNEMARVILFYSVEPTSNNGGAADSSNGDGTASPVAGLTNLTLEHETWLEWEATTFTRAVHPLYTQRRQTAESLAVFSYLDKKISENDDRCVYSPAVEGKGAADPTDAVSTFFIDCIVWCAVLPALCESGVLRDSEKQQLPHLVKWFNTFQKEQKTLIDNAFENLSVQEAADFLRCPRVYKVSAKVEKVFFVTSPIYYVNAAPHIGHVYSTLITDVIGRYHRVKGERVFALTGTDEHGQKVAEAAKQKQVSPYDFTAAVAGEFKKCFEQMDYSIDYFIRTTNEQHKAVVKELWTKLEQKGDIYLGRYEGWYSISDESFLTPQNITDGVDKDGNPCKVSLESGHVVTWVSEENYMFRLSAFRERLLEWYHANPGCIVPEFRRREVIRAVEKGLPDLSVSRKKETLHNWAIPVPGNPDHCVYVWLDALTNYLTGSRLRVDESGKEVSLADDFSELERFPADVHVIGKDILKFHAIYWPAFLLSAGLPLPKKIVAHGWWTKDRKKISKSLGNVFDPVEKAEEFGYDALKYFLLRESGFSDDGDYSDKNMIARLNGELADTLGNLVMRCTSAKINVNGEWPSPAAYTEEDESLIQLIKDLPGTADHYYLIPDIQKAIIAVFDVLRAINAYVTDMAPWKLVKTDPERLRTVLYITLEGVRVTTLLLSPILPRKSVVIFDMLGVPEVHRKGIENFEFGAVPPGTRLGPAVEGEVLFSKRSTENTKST

[23] = target: T4, Methionyl-tRNA synthetase, putative; format: functional, Trypanosoma brucei brucei strain 927/4 GUTat10.1; remark: listed apart in the source
[24] = target: T5, DNA repair protein RAD52 homolog (Homo sapiens, UniProt P43351); format: functional, biochemical
T5 sequence (P43351 whole entry): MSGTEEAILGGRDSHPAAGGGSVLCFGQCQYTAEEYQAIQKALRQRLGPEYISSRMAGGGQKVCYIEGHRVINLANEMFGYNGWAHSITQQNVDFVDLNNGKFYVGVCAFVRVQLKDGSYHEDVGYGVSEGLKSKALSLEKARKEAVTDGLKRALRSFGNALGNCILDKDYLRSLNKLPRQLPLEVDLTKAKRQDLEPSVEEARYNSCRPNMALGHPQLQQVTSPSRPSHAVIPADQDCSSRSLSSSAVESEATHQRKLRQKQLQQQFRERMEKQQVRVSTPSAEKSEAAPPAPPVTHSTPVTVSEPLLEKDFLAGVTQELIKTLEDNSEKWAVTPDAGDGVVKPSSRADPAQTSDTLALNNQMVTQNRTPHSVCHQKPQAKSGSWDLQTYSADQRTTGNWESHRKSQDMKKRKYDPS

[25] = Counterscreen for inhibitors of Trypanosoma brucei methionyl tRNA synthetase (MetRS): Luminescence-based cell-based high throughput dose response assay to identify compounds that are cytotoxic to Jurkat human T lymphocyte cells.; format: functional

T2 sequence (Q92731 whole entry): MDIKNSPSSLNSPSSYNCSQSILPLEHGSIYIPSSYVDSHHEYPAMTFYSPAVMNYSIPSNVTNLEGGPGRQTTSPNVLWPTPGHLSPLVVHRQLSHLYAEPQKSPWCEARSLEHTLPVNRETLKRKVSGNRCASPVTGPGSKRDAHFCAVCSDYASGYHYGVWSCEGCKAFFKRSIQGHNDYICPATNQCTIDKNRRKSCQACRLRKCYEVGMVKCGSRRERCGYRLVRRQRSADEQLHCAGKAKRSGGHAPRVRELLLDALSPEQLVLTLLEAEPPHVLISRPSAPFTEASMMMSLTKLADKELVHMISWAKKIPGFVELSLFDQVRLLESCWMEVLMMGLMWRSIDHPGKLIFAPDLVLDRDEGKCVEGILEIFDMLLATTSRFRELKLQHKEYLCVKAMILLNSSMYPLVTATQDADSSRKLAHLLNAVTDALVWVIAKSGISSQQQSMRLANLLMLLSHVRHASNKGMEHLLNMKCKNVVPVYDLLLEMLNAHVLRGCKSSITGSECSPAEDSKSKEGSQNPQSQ
Chain of Peroxisome proliferator-activated receptor gamma/Nuclear receptor coactivator 1 (P37231 whole entry): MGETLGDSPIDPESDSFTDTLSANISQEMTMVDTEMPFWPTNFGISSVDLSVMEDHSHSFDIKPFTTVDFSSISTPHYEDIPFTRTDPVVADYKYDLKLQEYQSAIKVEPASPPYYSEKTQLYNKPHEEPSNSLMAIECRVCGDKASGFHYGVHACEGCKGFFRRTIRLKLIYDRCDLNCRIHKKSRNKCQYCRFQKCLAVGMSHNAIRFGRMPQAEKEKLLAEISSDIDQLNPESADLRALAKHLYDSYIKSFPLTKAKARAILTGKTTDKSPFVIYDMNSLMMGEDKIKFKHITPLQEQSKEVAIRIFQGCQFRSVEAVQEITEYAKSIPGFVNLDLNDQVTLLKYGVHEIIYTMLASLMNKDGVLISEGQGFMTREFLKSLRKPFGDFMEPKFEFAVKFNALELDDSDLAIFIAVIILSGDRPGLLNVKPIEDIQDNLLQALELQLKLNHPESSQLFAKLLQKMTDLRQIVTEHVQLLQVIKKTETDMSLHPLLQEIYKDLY
Chain of Peroxisome proliferator-activated receptor gamma/Nuclear receptor coactivator 1 (Q15788 whole entry, further chain): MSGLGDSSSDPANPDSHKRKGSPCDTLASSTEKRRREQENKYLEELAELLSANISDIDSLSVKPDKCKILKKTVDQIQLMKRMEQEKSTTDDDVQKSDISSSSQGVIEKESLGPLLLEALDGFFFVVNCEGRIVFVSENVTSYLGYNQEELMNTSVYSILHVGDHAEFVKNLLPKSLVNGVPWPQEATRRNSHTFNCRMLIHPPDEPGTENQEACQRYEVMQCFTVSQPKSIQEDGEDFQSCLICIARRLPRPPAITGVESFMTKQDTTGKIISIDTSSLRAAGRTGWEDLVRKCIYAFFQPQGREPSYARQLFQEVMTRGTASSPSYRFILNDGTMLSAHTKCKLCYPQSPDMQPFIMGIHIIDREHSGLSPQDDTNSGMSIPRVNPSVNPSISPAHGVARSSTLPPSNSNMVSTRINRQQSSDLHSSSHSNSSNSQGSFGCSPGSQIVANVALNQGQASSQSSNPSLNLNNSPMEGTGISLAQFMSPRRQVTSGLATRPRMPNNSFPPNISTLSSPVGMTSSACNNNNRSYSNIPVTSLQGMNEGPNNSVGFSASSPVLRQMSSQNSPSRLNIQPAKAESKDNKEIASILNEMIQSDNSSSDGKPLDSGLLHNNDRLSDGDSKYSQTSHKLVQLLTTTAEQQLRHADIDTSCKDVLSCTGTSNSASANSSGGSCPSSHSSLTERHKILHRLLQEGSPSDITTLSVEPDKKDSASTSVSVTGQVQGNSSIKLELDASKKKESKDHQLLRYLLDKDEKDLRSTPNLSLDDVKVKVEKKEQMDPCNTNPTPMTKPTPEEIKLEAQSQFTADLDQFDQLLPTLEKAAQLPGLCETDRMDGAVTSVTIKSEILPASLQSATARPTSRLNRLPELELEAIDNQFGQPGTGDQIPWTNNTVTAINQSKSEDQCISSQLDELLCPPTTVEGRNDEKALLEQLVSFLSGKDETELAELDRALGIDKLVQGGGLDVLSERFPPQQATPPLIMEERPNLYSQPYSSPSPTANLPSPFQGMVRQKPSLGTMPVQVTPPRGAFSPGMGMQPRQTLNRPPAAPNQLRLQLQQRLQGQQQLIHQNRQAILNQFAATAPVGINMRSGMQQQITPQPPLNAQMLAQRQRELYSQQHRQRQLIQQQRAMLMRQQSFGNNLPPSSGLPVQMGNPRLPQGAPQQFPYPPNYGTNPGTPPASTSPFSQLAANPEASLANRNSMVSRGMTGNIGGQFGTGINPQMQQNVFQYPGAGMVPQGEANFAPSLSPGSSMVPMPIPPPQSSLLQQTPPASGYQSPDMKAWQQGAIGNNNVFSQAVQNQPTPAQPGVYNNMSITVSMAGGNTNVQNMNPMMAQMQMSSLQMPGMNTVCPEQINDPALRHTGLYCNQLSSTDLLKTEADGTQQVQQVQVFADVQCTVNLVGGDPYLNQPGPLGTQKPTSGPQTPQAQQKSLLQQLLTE
Chain of Peroxisome proliferator-activated receptor gamma/Nuclear receptor coactivator 2 (P37231 whole entry): as the sequence (P37231 whole entry) above
Chain of Peroxisome proliferator-activated receptor gamma/Nuclear receptor coactivator 2 (Q15596 whole entry, further chain): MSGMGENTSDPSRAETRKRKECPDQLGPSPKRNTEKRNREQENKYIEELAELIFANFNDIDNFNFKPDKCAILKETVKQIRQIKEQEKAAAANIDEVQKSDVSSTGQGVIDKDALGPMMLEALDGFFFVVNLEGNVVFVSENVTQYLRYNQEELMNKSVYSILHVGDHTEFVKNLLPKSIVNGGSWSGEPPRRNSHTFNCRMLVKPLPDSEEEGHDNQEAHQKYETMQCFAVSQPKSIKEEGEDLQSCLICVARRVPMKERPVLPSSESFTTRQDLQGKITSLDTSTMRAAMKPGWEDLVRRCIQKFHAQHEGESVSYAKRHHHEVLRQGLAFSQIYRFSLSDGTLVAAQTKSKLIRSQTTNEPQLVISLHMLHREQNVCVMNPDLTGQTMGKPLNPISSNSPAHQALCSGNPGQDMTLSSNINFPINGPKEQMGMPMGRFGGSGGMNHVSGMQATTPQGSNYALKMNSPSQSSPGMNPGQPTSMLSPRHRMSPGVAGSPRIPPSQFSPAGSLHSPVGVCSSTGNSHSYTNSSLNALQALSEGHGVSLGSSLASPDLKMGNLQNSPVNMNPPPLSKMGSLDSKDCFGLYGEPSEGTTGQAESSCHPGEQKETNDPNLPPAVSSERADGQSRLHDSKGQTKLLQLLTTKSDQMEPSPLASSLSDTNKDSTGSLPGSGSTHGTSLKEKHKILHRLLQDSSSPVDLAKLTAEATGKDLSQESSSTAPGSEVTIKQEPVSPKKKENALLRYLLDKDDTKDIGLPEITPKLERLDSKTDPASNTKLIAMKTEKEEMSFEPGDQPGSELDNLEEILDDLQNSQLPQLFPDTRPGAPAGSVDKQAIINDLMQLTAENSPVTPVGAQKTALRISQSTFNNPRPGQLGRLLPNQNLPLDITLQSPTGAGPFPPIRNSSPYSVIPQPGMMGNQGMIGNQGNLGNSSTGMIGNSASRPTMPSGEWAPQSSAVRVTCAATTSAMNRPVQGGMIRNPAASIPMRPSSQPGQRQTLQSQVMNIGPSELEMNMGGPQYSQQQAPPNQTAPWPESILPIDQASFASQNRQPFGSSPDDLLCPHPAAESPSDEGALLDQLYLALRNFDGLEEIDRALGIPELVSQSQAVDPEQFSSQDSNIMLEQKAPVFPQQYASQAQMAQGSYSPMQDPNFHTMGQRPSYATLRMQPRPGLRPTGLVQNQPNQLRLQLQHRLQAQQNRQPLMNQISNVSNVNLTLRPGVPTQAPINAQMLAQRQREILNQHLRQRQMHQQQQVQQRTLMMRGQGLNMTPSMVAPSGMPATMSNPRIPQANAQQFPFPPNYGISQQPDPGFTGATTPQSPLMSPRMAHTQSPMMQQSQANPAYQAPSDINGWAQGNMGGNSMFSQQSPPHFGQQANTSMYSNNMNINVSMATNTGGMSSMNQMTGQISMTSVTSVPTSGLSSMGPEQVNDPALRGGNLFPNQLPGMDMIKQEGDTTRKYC
Chain of Paired box protein Pax-8 (Q06710 whole entry): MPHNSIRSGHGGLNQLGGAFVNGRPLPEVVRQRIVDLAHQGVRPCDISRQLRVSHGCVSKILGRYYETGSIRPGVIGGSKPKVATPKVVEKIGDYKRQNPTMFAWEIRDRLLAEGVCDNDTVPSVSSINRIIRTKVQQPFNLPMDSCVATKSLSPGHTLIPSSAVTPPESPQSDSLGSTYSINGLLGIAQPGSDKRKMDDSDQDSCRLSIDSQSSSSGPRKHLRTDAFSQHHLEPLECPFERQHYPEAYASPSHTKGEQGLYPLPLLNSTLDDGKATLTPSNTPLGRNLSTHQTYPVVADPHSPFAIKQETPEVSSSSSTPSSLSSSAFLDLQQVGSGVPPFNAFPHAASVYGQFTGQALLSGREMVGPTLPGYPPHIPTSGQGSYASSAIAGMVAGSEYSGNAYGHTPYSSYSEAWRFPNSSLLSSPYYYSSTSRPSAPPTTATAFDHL

IC50 [1]: > 100 µM (active) | IC50 (Bcl-2-like protein 10): 62.5 µM (inactive) | IC50 (Estrogen receptor beta [2]): 14.7 µM (not active) | IC50 (Estrogen receptor beta [3]): 31 µM (not active)
SMILES: CCc1ccccc1NC(=O)c1cc2ncc(Br)cn2n1

AC50 (Cytochrome P450 2C19): 3.98 µM (inconclusive)
SMILES: CC(=O)c1ccc(OC2C=CC(C#Cc3ccc(Br)cc3)OC2CO)cc1 (stereo not drawn)

AC50 (Cytochrome P450 2C19): 7.94 µM (inconclusive)
SMILES: CCCCC#CC1C=CC(OC(C)=O)C(COC(C)=O)O1 (stereo not drawn)

EC50 [4]: > 79.4 µM (not active) | EC50 [5]: > 79.4 µM (not active) | EC50 [6]: > 79.4 µM (not active)
SMILES: O=C(C1=C[C@@H](c2ccc(C(F)(F)F)cc2)C[C@@H](OCCCCO)O1)N1CCN(Cc2ccc3c(c2)OCO3)CC1

EC50 [4]: > 79.4 µM (not active) | EC50 [5]: > 79.4 µM (not active) | EC50 [6]: > 79.4 µM (not active)
SMILES: CC(C)NC(=O)NC(=O)CSc1ccccc1F

IC50 (Estrogen receptor): > 50 µM (not active) | IC50 (Estrogen receptor beta [2]): 6.1 µM (not active) | IC50 (Estrogen receptor beta [3]): 6.84 µM (active)
SMILES: Cc1ccc(C(=O)NCC(=O)OCC(=O)c2c(N)n(C)c(=O)n(C)c2=O)s1

SMILES: COc1ccc2c(c1OC)C(=O)O[C@H]2[C@@H]1c2cc3c(cc2CCN1C)OCO3
IC50 [7]: > 33.3 µM (inactive)

IC50 [1]: > 100 µM (active)
SMILES: CCOC(=O)/C(C#N)=C/c1c(OCC)n(CC)c2ccccc12

IC50 [1]: > 100 µM (active)
SMILES: CCC(C)NS(=O)(=O)c1ccc(NS(=O)(=O)c2ccc(F)cc2)cc1 (stereo not drawn)

SMILES: O=C(NC1CCCC1)C(c1ccncc1)N(Cc1ccccc1F)C(=O)c1csnn1 (stereo not drawn)
AC50 [8]: 34.7 µM (active)

SMILES: COc1ccc(S(=O)(=O)Nc2ccc3c(c2)C(=O)N([C@@H](C)CO)C[C@H](C)[C@@H](CN(C)C(=O)Nc2ccc(F)cc2)OCCCC[C@H](C)O3)cc1
AC50 [9]: 59.1 µM (active) | AC50 (Paired box protein Pax-8): 9.96 µM (active)

SMILES: O=C(C[C@H]1C[C@@H]2c3cc(NS(=O)(=O)c4ccc(F)cc4)ccc3O[C@@H]2[C@@H](CO)O1)N1CCc2ccccc2C1
AC50 [8]: 17.5 µM (active) | AC50 [10]: 6.85 µM (active) | AC50 [11]: 9.73 µM (active) | AC50 [12]: 26.1 µM (active) | AC50 [9]: 57.8 µM (active) | AC50 [13]: 23.9 µM (active) | AC50 (Paired box protein Pax-8): 3.86 µM (active)

SMILES: C[C@H]1CN([C@@H](C)CO)C(=O)c2cc(C#CCc3ccccc3)cnc2O[C@H]1CN(C)Cc1ccccc1
AC50 [14]: > 52 µM (inactive) | AC50 [15]: 38.2 µM (active) | AC50 [16]: 23.3 µM (active)

SMILES: CN(C)C(=O)c1ccc(-c2ccc([C@H]3[C@H](CO)N4CCCCN(C(=O)C5CCCC5)C[C@@H]34)cc2)cc1
AC50 [17]: 48.8 nM (active)

SMILES: COc1ccc(C#Cc2cccc(-c3nc(C(=O)NCc4ccc5c(c4)OCO5)cc4c3[C@@H](CCO)N([S+]([O-])C(C)(C)C)C4)c2)cc1OC (stereo partly drawn)
AC50 [17]: 580 nM (active) | AC50 [11]: 0.747 µM (active) | AC50 [18]: 2.05 µM (active) | AC50 [19]: > 100 µM (inactive) | AC50 [20]: 838 nM (active) | AC50 [21]: 1.52 µM (active)

SMILES: CN(C)C(=O)c1cccc(-c2ccc([C@H]3[C@H](CO)N4CCCCN(CC5CCOCC5)C[C@@H]34)cc2)c1
AC50 [17]: 4630 nM (active)

SMILES: CN(C)CC(=O)N1CCCCN2[C@@H](CO)[C@H](c3ccc(/C=C/c4ccccc4)cc3)[C@@H]2C1
AC50 [8]: 23.8 µM (active)

IC50 (Estrogen receptor beta [2]): 5.18 µM (not active) | IC50 (Estrogen receptor beta [3]): 12.2 µM (active)
SMILES: CC(=N)/C(C#N)=C(/O)CSc1nnc(Nc2ccccc2C)s1

SMILES: C[C@@H]1CCCCO[C@@H](CN(C)C(=O)Nc2cccc3ccccc23)[C@H](C)CN([C@H](C)CO)C(=O)c2cc(NC(=O)CCC(F)(F)F)ccc2O1
AC50 [10]: 1.08 µM (active)

SMILES: COc1ccc(NC(=O)N(C)C[C@H]2Oc3c(NC(=O)CCCCCC(=O)Nc4ccccc4N)cccc3C(=O)N([C@@H](C)CO)C[C@H]2C)cc1
AC50 [10]: 0.983 µM (active)

SMILES: COc1cc2nc(Nc3cccc(F)c3)nc(N)c2cc1OC
IC50 [22]: 26.2 µM (inactive) | IC50 [23]: 18.2 µM (inactive) | AC50 [24]: 8.77 µM (active) | IC50 [25]: 35.5 µM (inactive)
